Laboratory results reported in PMC9191221 (Iranian Journal of Pharmaceutical Research : IJPR, 2022).
Several values for one entry are separate records, joined by “and”; a condition that tells them apart may be missing. Identical values can stand only once.

Biological target: EGFR^T790M (Homo sapiens, UniProt P00533, T790M)
Assay: EGFR-TK assay kit / ADP-Glo kinase assay
Type: biochemical
Settings: tested in triplicate

Sequence of EGFR^T790M (P00533 25-1210 T790M): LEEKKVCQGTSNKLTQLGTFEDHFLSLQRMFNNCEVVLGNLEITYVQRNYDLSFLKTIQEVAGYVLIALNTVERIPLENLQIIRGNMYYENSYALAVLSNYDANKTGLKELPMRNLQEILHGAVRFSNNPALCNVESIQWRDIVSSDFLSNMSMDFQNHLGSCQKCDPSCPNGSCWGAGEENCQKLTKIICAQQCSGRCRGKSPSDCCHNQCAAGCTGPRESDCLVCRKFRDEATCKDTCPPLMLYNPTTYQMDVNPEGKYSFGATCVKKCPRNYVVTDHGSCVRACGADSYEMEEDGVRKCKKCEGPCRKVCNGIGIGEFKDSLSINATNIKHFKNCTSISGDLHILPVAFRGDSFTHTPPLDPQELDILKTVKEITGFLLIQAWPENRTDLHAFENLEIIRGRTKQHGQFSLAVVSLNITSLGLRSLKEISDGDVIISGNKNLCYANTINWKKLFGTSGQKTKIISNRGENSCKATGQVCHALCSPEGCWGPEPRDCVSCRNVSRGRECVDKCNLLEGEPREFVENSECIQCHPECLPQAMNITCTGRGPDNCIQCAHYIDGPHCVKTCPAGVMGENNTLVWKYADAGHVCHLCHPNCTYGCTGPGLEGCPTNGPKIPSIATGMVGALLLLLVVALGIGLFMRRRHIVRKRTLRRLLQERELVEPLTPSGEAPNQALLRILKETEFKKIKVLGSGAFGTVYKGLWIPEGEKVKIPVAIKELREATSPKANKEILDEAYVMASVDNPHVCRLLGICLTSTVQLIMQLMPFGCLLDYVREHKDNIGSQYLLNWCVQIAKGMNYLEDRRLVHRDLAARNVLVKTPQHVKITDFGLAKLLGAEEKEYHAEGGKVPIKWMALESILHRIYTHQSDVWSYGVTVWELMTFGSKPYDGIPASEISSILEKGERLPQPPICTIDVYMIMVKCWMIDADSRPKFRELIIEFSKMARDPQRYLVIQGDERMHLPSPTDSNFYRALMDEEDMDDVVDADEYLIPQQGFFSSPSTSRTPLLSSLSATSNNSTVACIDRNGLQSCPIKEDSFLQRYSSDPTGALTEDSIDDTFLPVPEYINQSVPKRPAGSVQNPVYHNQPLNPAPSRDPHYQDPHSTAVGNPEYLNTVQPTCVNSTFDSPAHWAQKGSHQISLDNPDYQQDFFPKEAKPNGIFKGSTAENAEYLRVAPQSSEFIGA

O=c1nc(NCc2ccccc2Cl)[nH]c2ccc(Oc3ccccc3)cc12 [Compound 8b, 2-((2-Chlorobenzyl)amino)-6-phenoxyquinazolin-4(1H)-one]
IC50: 0.37 nM and 1.37 nM
